# Laboratory results from US20140130191A1, “METHODS FOR TREATING IMMUNE-MEDIATED DISEASES OF THE NERVOUS SYSTEM ADMINISTERING A COMPOUND COMPRISING AGENTS THAT INHIBIT PROKINETICIN RECEPTORS ACTIVITY” (FONDAZIONE I.R.C.C.S. ISTITUTO NEUROLOGICO "CARLO BESTA", priority 2011, published 2014).
# Tests used:
# [1] = test system: splenocytes; test: T-cell response in splenocytes of mice with relapsing-remitting EAE, restimulated in vitro with PLP139-151; format: cell-based
# Protocol: With reference to FIG. 5, 8-12 week old female SJL mice in which EAE had been induced by immunization with PLP139-151 in CFA were preventively treated (day 0) with PC1 at a dose of 500 μg/kg per day, or with vehicle as described in FIG. 4. The splenocytes were obtained 35 days after immunization with PLP139-151, and were restimulated in vitro with the antigen PLP139-151 at different concentrations or with the medium.
# To assay proliferation, after 48 hours of incubation with 5% Co2 at 37° C., the cultures were loaded for 18 hours with 0.5 μCi 3H-thymidine per well. To assay cytokine production, splenocytes were restimulated in vitro with the antigen PLP139-151 at different concentrations or with the medium. The concentration of Interferon-gamma (IFN-gamma), tumour necrosis factor (TNF), Interleukine-6 (IL-6), IL-17, IL-4, and IL-10 was determined in duplicate using the ELISA technique (ELISA DuoSet, Pharmingen, CA). The results are representative of two consecutive experiments that gave similar results.
# [2] = test system: relapsing-remitting PLP139-151 induced EAE in SJL mice; test: Relapsing-remitting EAE in SJL mice, preventive treatment regimen; format: in vivo; details: for Incidence (%): PLP139-151 in CFA; for severity of the disease (in words): preventive treatment, 500 μg/kg
# From the text: (§1) The relapsing-remitting EAE model was obtained in female SJL mice by immunization with myelin proteolipid protein fragment 139-151 (PLP139-151) in complete Freund's adjuvant (CFA) [Pedotti et al., Nat Immunol 2001]. The chronic EAE model was obtained in C57BL/6 mice as mentioned before.
# (§2) We used non-peptide prokineticin receptors antagonist drugs called PC1 and PC7 (whose chemical structure is shown in FIG. 1) to chronically treat the mice starting both from the time of induction of EAE (day 0; preventive treatment) and from the onset of the first symptoms of EAE (day 10-12, approximately; therapeutic treatment).
# (§3) With reference to FIG. 4, the non-peptide prokineticin receptor 1 and 2 antagonist PCI was administered intraperitoneally to 8-12 week old female SJL mice in which EAE had been induced by immunization with PLP139-151 (100 μg/mouse) in CFA. The PC1 was given at a dose of 500 μg/kg (n=10). As a control, an equal amount of saline solution was injected (vehicle) (n=10). The treatments began at the time of induction of EAE (preventive treatment), or, more specifically, 4 hours after the induction of EAE. Ten mice per group were used. The graph represents the average daily disease score±standard error of the mean (SEM). A scale of 0 to 5 was used to attribute the score, where 0 is the absence of symptoms and 5 is death (as described in Pedotti et al, Nat Immunol 2001). *p<0.05 for two-tailed unpaired Student's t test vs Control. The results are representative of three consecutive experiments that gave similar results.
# as §3, with “6,” for “4,”, “PC-7” for “PCI”, “PC7” for “PC1”, “μg /kg” for “μg/kg”, “(SEM).” for “(SEM). A scale of 0 to 5 was used to attribute the score, where 0 is the absence of symptoms and 5 is death (as described in Pedotti et al, Nat Immunol 2001). *p<0.05 for two-tailed unpaired Student's t test vs Control.”
# [3] = test system: chronic MOG35-55 induced EAE in C57B1/6 mice; test: Chronic EAE in C57B1/6 mice, therapeutic treatment regimen; format: in vivo
# From the text: (§4) In the study conducted we verified the expression of PK-2 and its receptors PK-R1 and PK-R2 in the experimental model of chronic EAE, an experimental model of MS. The chronic EAE model was obtained in C57B1/6 mice by immunization with myelin oligodendrocyte glycoprotein peptide fragment 35-55 (MOG35-55) and PTX (Pertussis toxin) [Pedotti et al., PNAS 2003]. During chronic EAE, we observed an increase of mRNA expression of PK-2 by lymph node cells and purified CD4+ T cells in C57B1/6 mice during the disease. This increase of mRNA expression started before the onset of the disease and is less significant after its onset (FIG. 2). We observed also an important increase of the levels of the protein PK-2 in the serum of mice with MOG35-55 induced EAE (FIG. 3). This increase of PK-2 was accompanied by a dramatic reduction of PK-R2 expression in lymph node cells and CD4+T cells. […] Thus, the couple PK-2/PK-R1 seemed to play an important role during EAE, the experimental model of MS.
# as §2
# With reference to FIG. 10, the non-peptide prokineticin receptor 1 and 2 antagonist PC-7 was administered intraperitoneally to 8-12 week old female C57B1/6 mice in which chronic EAE had been induced by immunization with MOG35-55 (100 μg/mouse) and PTX (400 ng/mouse). The PC-7 was given at a dose of 500 μg /kg (n=10). As a control, an equal amount of saline solution was injected (vehicle) (n=10). The treatments began on the onset of the first symptoms of the disease (day 12). Ten mice per group were used. The graph represents the average daily disease score±standard error of the mean (SEM). The results are representative of two consecutive experiments that gave similar results.
# [4] = test system: relapsing-remitting PLP139-151 induced EAE in SJL mice; test: Relapsing-remitting EAE in SJL mice, therapeutic treatment regimen; format: in vivo
# From the text: as §1, §2
# With reference to FIG. 7, the non-peptide prokineticin receptor 1 and 2 antagonist PC-7 was administered intraperitoneally to 8-12 week old female SJL mice in which EAE had been induced by immunization with PLP139-151 (100 μg/mouse) in CFA. The PC-7 was given at a dose of 500 μg/kg (n=10). As a control, an equal amount of saline solution was injected (control) (n=10). The treatments began on the appearance of the first symptoms of the disease (Day 11). Ten mice per group were used. The graph represents the average daily disease score±standard error of the mean (SEM). The results are representative of three consecutive experiments that gave similar results.
# [5] = test system: DLN cells; test: T-cell response in draining lymph node cells of mice with relapsing-remitting EAE, restimulated in vitro with PLP139-151; format: cell-based; details: restimulated with PLP139-151, vs vehicle
# Protocol: With reference to FIG. 8, 8-12 week old female SJL mice in which EAE had been induced by immunization with PLP139-151 in CFA were preventively treated (day 0) with PC-7 at a dose of 500 μg/kg per day or with vehicle as described in the previous experiments. The draining lymph nodes (DLN, inguinal and axillary) were obtained 7 days after immunization with PLP139-151. To assay proliferation, the DLN cells were restimulated in vitro with the antigen PLP139-151 at different concentrations, with Concanavalin A (2 μg /ml), or with the medium.
# (§5) After 48 hours of incubation with 5% Co2 at 37° C., the cultures were loaded for 18 hours with 0.5 μCi 3H-thymidine per well.
# To assay cytokine production, DLN cells were restimulated in vitro with the antigen PLP139-151 at different concentrations or with the medium. Data are expressed as mean cpm±SEM, ng/ml±SEM, or pg/ml±SEM.
# [6] = test system: DLN cells; test: T-cell response in draining lymph node cells of mice with chronic EAE, restimulated in vitro with MOG35-55; format: cell-based; details: restimulated with MOG35-55, vs vehicle
# Protocol: With reference to FIG. 11, 8-12 week old female C57B1/6 mice in which chronic EAE had been induced by immunization with MOG35-55 were preventively treated (day 0) with PC-7 at a dose of 500 μg/kg per day or with a vehicle as described in the previous experiments. The draining lymph nodes (DLN, inguinal and axillary) were obtained 10 days after immunization with MOG35-55. To assay proliferation, the DLN cells were restimulated in vitro with MOG35-55 at different concentrations, with Concanavalin A (2 μg/ml), or with the medium. Data are expressed as mean cpm±SEM, ng/ml±SEM, or pg/ml±SEM.
# as §5
# To assay cytokine production, DLN cells were restimulated in vitro with MOG35-55 at different concentrations or with the medium.
# [7] = test system: chronic MOG35-55 induced EAE in C57B1/6 mice; test: Chronic EAE in C57B1/6 mice, preventive treatment regimen; format: in vivo
# From the text: as §4, §2
# With reference to FIG. 9, the non-peptide prokineticin receptor 1 and 2 antagonist PC7 was administered intraperitoneally to 8-12 week old female C57B1/6 mice in which chronic EAE had been induced by immunization with MOG35-55 (100 μg/mouse) and PTX (400 ng/mouse). The PC-7 was given at a dose of 500 μg/kg (n=10). As a control, an equal amount of saline solution was injected (vehicle) (n=10). The treatments began at the time of induction of EAE (preventive treatment), or, more specifically, 4 hours after the induction of EAE. Ten mice per group were used. The graph represents the average daily disease score±standard error of the mean (SEM). The results are representative of three consecutive experiments that gave similar results.
# [8] = splenocytes, restimulated with PLP139-151, ELISA, vs vehicle
# [9] = SJL mice, 500 μg/kg i.p., preventive, Table 1
# [10] = C57B1/6 mice, 500 μg/kg i.p. from first symptoms (day 12), therapeutic
# [11] = SJL mice, 500 μg/kg i.p., preventive, Table 2
# [12] = SJL mice, 500 μg/kg i.p. from first symptoms (Day 11), therapeutic
# [13] = DLN cells, relapsing-remitting EAE
# [14] = C57B1/6 mice, 500 μg/kg i.p., preventive
compound,measurement,setting,value
CCc1ccc(Cn2c(=O)nc(NCCNC(=N)N)n(Cc3ccc(OC)cc3)c2=O)cc1 [PC1],peptide-specific T cells proliferation,"[1]; splenocytes 35 days after immunization, mice treated 500 μg/kg per day preventively, restimulated with PLP139-151, vs vehicle",reduction
same,production of IFN-gamma,[1]; [8],reduction
same,production of IL-4,[1]; [8],increasing
same,production of TNF,[1]; [8],reduction
same,Cumulative disease score,[2]; [9],24.8 ± 9.0 *
same,Onset of disease (Day),[2]; [9],12.4 ± 1.0 * Day
same,Peak of disease Severity,"[2]; SJL mice, 500 μg/kg i.p., preventive, score scale 0 to 5, Table 1",1.7 ± 0.4 *
same,Incidence (%),"[2]; SJL mice, 500 μg/kg intraperitoneally from induction of EAE (preventive), Table 1",70% (7/10)
same,severity of the disease (in words),[2]; relapsing-remitting EAE,reduction in the severity of the disease
same,onset of the disease (in words),"[2]; relapsing-remitting EAE, treated from the time of induction of EAE",delay in the onset of the disease
COc1ccc(Cn2c(NCCNC(=N)N)nc(=O)n(Cc3ccc(F)cc3)c2=O)cc1 [PC7],Cumulative disease score,[3]; [10],50.9 ± 11.8
same,Incidence (%),[3]; [10],100% (10/10)
same,Peak in disease Severity,[3]; [10],3.3 ± 0.3
same,severity of the disease (in words),"[3]; chronic EAE, therapeutic treatment, 500 μg/Kg",significant reduction in the severity of the disease
same,Cumulative disease score,[2]; [11],21.2 ± 5.1 *
same,Onset of disease (Day),[2]; [11],11.4 ± 0.1 * Day
same,Peak in disease Severity,[2]; [11],2.2 ± 0.3 *
same,Incidence (%),"[2]; SJL mice, 500 μg/kg i.p. from induction of EAE (preventive), Table 2",90% (9/10)
same,severity of the disease (in words),[2]; relapsing-remitting EAE,significantly reduces the severity of the disease
same,Cumulative disease score,[4]; [12],42.3 ± 7.5
same,Incidence (%),[4]; [12],100% (10/10)
same,Peak in disease Severity,[4]; [12],2.6 ± 0.3
same,severity of the disease (in words),"[4]; relapsing-remitting EAE, therapeutic treatment, 500 μg/kg",significantly reduces the severity of the disease
same,proliferation of lymph node cells,"[5]; DLN cells 7 days after immunization, mice treated 500 μg/kg per day preventively",reduced proliferation
same,levels of IL-17A,[5]; [13],slight reduction
same,levels of interleukin IL-6,[5]; [13],increase
same,levels of interleukin IL-10,[5]; [13],increase
same,production of IFN,[5]; [13],significantly lower
same,production of TNF,[5]; [13],significantly lower
same,peptide-specific T cells proliferation,"[6]; DLN cells 10 days after immunization, mice treated 500 μg/kg per day preventively",reduction
same,production of IFN-gamma,"[6]; DLN cells, chronic EAE",reduction
same,production of IL-10,"[6]; DLN cells, chronic EAE",increasing
same,production of IL-17,"[6]; DLN cells, chronic EAE",reduction
same,production of TNF,"[6]; DLN cells, chronic EAE",reduction
same,Cumulative disease score,[7]; [14],41.1 ± 11.8
same,Onset of disease,[7]; [14],16.8 ± 1.7 days
same,Peak in disease Severity,[7]; [14],2.5 ± 0.5
same,Incidence (%),"[7]; C57B1/6 mice, MOG35-55 and PTX, 500 μg/kg i.p. from induction of EAE (preventive)",90% (9/10)
same,severity of the disease (in words),"[7]; chronic EAE, preventive treatment",significant reduction in the severity of the disease
